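96-well plates; 48 h exposure; 5 concentrations. Endpoints by linear interpolation between flanking doses. Not reached: highest tested concentration assigned. Definition used: TGI = concentration required for complete inhibition of growth.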
Legend:
Assay in all cases: NCI tumour cell line growth inhibition, 48 h
[1] = tested on: NCI-H226 lung
[2] = tested on: K-562 leukemia
[3] = tested on: EKVX NSCLC
[4] = tested on: IGROV1 ovarian
[5] = tested on: UACC-62 melanoma
[6] = tested on: SF-295 CNS
[7] = tested on: RPMI-8226 leukemia
[8] = tested on: PC-3 prostate
[9] = tested on: MOLT-4 leukemia
[10] = tested on: SK-MEL-2 melanoma
[11] = tested on: A498 renal
[12] = tested on: SK-MEL-28 melanoma
[13] = tested on: TK-10 renal
[14] = tested on: CCRF-CEM leukemia
[15] = tested on: NCI-H522 lung
[16] = tested on: UO-31 renal
[17] = tested on: M14 melanoma
[18] = tested on: SF-539 CNS
[19] = tested on: OVCAR-3 ovarian
[20] = tested on: COLO 205 colon
[21] = tested on: DU-145 prostate
[22] = tested on: NCI/ADR-RES ovarian
[23] = tested on: SK-OV-3 ovarian
[24] = tested on: SN12C renal
[25] = tested on: OVCAR-4 ovarian
[26] = tested on: MCF7 breast
[27] = tested on: SW-620 colon
[28] = tested on: KM12 colon
[29] = tested on: NCI-H23 lung
[30] = tested on: T-47D breast
[31] = tested on: SF-268 CNS
[32] = tested on: OVCAR-5 ovarian
[33] = tested on: SK-MEL-5 melanoma
[34] = tested on: MALME-3M melanoma
[35] = tested on: UACC-257 melanoma
[36] = tested on: HT29 colon
[37] = tested on: MDA-N
[38] = tested on: LOX IMVI melanoma
[39] = tested on: BT-549 breast
[40] = tested on: HL-60(TB) leukemia
[41] = tested on: HCT-15 colon
[42] = tested on: HS 578T breast
[43] = tested on: A549 NSCLC
[44] = tested on: NCI-H460 lung
[45] = tested on: HOP-92 NSCLC
[46] = tested on: HCC-2998 colon
[47] = tested on: CAKI-1 renal
[48] = tested on: RXF 393 renal
[49] = tested on: ACHN renal
[50] = tested on: SNB-19 CNS
[51] = tested on: MDA-MB-435
[52] = tested on: OVCAR-8 ovarian
[53] = tested on: MDA-MB-231 breast
[54] = tested on: HOP-62 NSCLC
[55] = tested on: 786-0 renal
[56] = tested on: U251 CNS
[57] = tested on: HCT-116 colon
[58] = tested on: SNB-75 CNS
[59] = tested on: SR leukemia

`CC(=O)NCCC1CN(C(=O)/C=C\C#C[Si](C)(C)C)c2ccccc21` (stereo not drawn) gave a TGI [1] of 46 µM, a TGI [2] greater than 100 µM and a TGI [3] of 37.5 µM. It also gave a TGI [4] of 30.8 µM, a TGI [5] of 32.4 µM and a TGI [6] greater than 100 µM. It also gave a TGI [7] greater than 100 µM, a TGI [8] greater than 100 µM and a TGI [9] greater than 100 µM. It also gave a TGI [10] of 37.8 µM, a TGI [11] greater than 100 µM and a TGI [12] greater than 100 µM. It also gave a TGI [13] greater than 100 µM, a TGI [14] greater than 100 µM and a TGI [15] of 24.3 µM. For the same compound, the TGI [16] was greater than 100 µM, the TGI [17] was 45.5 µM and the TGI [18] was 73.8 µM. The TGI [19] was 84.1 µM, the TGI [20] was greater than 100 µM and the TGI [21] was greater than 100 µM. For the same compound, the TGI [22] was 54.6 µM, the TGI [23] was greater than 100 µM and the TGI [24] was greater than 100 µM. The TGI [25] was 63.3 µM, the TGI [26] was greater than 100 µM and the TGI [27] was greater than 100 µM. The TGI [28] was greater than 100 µM, the TGI [29] was 28.4 µM and the TGI [30] was 86.4 µM. For the same compound, the TGI [31] was greater than 100 µM, the TGI [32] was 33.7 µM and the TGI [33] was greater than 100 µM. For the same compound, the TGI [34] was 49.4 µM, the TGI [35] was 9.27 µM and the TGI [36] was 58.9 µM. For the same compound, the TGI [37] was greater than 100 µM, the TGI [38] was 44.3 µM and the TGI [39] was greater than 100 µM. It also gave a TGI [40] of 81.3 µM, a TGI [41] of 48.9 µM and a TGI [42] greater than 100 µM. For the same compound, the TGI [43] was greater than 100 µM, the TGI [44] was greater than 100 µM and the TGI [45] was greater than 100 µM. For the same compound, the TGI [46] was 43.2 µM, the TGI [47] was 33.2 µM and the TGI [48] was 55.3 µM. The TGI [49] was greater than 100 µM, the TGI [50] was 93.7 µM and the TGI [51] was greater than 100 µM. It also gave a TGI [52] greater than 100 µM and a TGI [53] of 67.3 µM.
`CC(C)CCC[C@@H](C)[C@H]1CCC2C3CC=C4C[C@@H](Oc5c6ccccc6nc6ccccc56)CCC4C3CCC21` (stereo partly drawn) gave a TGI [1] greater than 50 µM, a TGI [54] greater than 50 µM and a TGI [2] greater than 50 µM. For the same compound, the TGI [3] was greater than 50 µM, the TGI [4] was greater than 50 µM and the TGI [5] was greater than 50 µM. The TGI [6] was greater than 50 µM, the TGI [8] was greater than 50 µM and the TGI [10] was greater than 50 µM. The TGI [12] was greater than 50 µM, the TGI [13] was greater than 50 µM and the TGI [14] was greater than 50 µM. For the same compound, the TGI [15] was greater than 50 µM, the TGI [16] was greater than 50 µM and the TGI [17] was greater than 50 µM. It also gave a TGI [18] greater than 50 µM, a TGI [19] greater than 50 µM and a TGI [20] greater than 50 µM. The TGI [21] was greater than 50 µM, the TGI [22] was greater than 50 µM and the TGI [23] was greater than 50 µM. For the same compound, the TGI [24] was greater than 50 µM, the TGI [25] was greater than 50 µM and the TGI [27] was greater than 50 µM. The TGI [28] was greater than 50 µM, the TGI [29] was greater than 50 µM and the TGI [30] was greater than 50 µM. The TGI [31] was greater than 50 µM, the TGI [32] was greater than 50 µM and the TGI [33] was greater than 50 µM. The TGI [34] was greater than 50 µM, the TGI [35] was greater than 50 µM and the TGI [36] was greater than 50 µM. For the same compound, the TGI [37] was greater than 50 µM, the TGI [38] was greater than 50 µM and the TGI [39] was greater than 50 µM. It also gave a TGI [40] greater than 50 µM, a TGI [41] greater than 50 µM and a TGI [42] greater than 50 µM. The TGI [43] was greater than 50 µM, the TGI [55] was greater than 50 µM and the TGI [44] was greater than 50 µM. For the same compound, the TGI [45] was greater than 50 µM, the TGI [47] was greater than 50 µM and the TGI [56] was greater than 50 µM. The TGI [48] was greater than 50 µM, the TGI [57] was greater than 50 µM and the TGI [49] was greater than 50 µM. The TGI [50] was greater than 50 µM, the TGI [51] was greater than 50 µM and the TGI [52] was greater than 50 µM. For the same compound, the TGI [53] was greater than 50 µM.
Work on `O=c1[nH]c(=O)n(C2OC(CO)C(O)C2O)c2c1CCCC2` (stereo not drawn) yielded a TGI [1] greater than 100 µM, a TGI [54] greater than 100 µM and a TGI [2] greater than 100 µM. It also gave a TGI [3] greater than 100 µM, a TGI [4] greater than 100 µM and a TGI [5] greater than 100 µM. It also gave a TGI [6] greater than 100 µM, a TGI [7] greater than 100 µM and a TGI [8] greater than 100 µM. It also gave a TGI [9] greater than 100 µM, a TGI [10] greater than 100 µM and a TGI [11] greater than 100 µM. For the same compound, the TGI [12] was greater than 100 µM, the TGI [13] was greater than 100 µM and the TGI [14] was greater than 100 µM. For the same compound, the TGI [15] was greater than 100 µM, the TGI [16] was greater than 100 µM and the TGI [17] was greater than 100 µM. For the same compound, the TGI [18] was greater than 100 µM, the TGI [19] was greater than 100 µM and the TGI [20] was greater than 100 µM. The TGI [21] was greater than 100 µM, the TGI [22] was greater than 100 µM and the TGI [23] was greater than 100 µM. It also gave a TGI [24] greater than 100 µM, a TGI [25] greater than 100 µM and a TGI [26] greater than 100 µM. The TGI [27] was greater than 100 µM, the TGI [28] was greater than 100 µM and the TGI [29] was greater than 100 µM. The TGI [30] was greater than 100 µM, the TGI [31] was greater than 100 µM and the TGI [32] was greater than 100 µM. For the same compound, the TGI [33] was greater than 100 µM, the TGI [34] was greater than 100 µM and the TGI [35] was greater than 100 µM. It also gave a TGI [36] greater than 100 µM, a TGI [37] greater than 100 µM and a TGI [38] greater than 100 µM. For the same compound, the TGI [40] was greater than 100 µM, the TGI [58] was greater than 100 µM and the TGI [41] was greater than 100 µM. For the same compound, the TGI [42] was greater than 100 µM, the TGI [43] was greater than 100 µM and the TGI [55] was greater than 100 µM. The TGI [44] was greater than 100 µM, the TGI [45] was greater than 100 µM and the TGI [46] was greater than 100 µM. It also gave a TGI [47] greater than 100 µM, a TGI [59] greater than 100 µM and a TGI [56] greater than 100 µM. The TGI [48] was greater than 100 µM, the TGI [57] was greater than 100 µM and the TGI [49] was greater than 100 µM. For the same compound, the TGI [50] was greater than 100 µM, the TGI [51] was greater than 100 µM and the TGI [52] was greater than 100 µM. The TGI [53] was greater than 100 µM.
In the case of `CC12CCC(C(=O)O1)C(C)(C)O2` (stereo not drawn), the TGI [1] is reported as greater than 100 µM, the TGI [54] is reported as greater than 100 µM and the TGI [2] is reported as greater than 100 µM. For the same compound, the TGI [3] was greater than 100 µM, the TGI [4] was greater than 100 µM and the TGI [5] was greater than 100 µM. The TGI [6] was greater than 100 µM, the TGI [7] was greater than 100 µM and the TGI [8] was greater than 100 µM. For the same compound, the TGI [9] was greater than 100 µM, the TGI [10] was greater than 100 µM and the TGI [11] was greater than 100 µM. The TGI [12] was greater than 100 µM, the TGI [13] was greater than 100 µM and the TGI [14] was greater than 100 µM. It also gave a TGI [15] greater than 100 µM, a TGI [16] greater than 100 µM and a TGI [17] greater than 100 µM. It also gave a TGI [18] greater than 100 µM, a TGI [19] greater than 100 µM and a TGI [22] greater than 100 µM. The TGI [23] was greater than 100 µM, the TGI [24] was greater than 100 µM and the TGI [25] was greater than 100 µM. It also gave a TGI [26] greater than 100 µM, a TGI [27] greater than 100 µM and a TGI [28] greater than 100 µM. The TGI [29] was greater than 100 µM, the TGI [31] was greater than 100 µM and the TGI [32] was greater than 100 µM. It also gave a TGI [34] greater than 100 µM, a TGI [35] greater than 100 µM and a TGI [36] greater than 100 µM. It also gave a TGI [37] greater than 100 µM, a TGI [38] greater than 100 µM and a TGI [39] greater than 100 µM. For the same compound, the TGI [40] was greater than 100 µM, the TGI [58] was greater than 100 µM and the TGI [41] was greater than 100 µM. It also gave a TGI [42] greater than 100 µM, a TGI [43] greater than 100 µM and a TGI [55] greater than 100 µM. It also gave a TGI [44] greater than 100 µM, a TGI [45] greater than 100 µM and a TGI [46] greater than 100 µM. It also gave a TGI [47] greater than 100 µM, a TGI [59] greater than 100 µM and a TGI [56] greater than 100 µM. It also gave a TGI [48] greater than 100 µM, a TGI [57] greater than 100 µM and a TGI [49] greater than 100 µM. The TGI [50] was greater than 100 µM, the TGI [51] was greater than 100 µM and the TGI [52] was greater than 100 µM. It also gave a TGI [53] greater than 100 µM.

Reference: PubChem BioAssay (NCI)
